Data taken from patent US20250041461A1, “[177LU] LUTETIUM-PSMA I&T COMPOSITION AND DOSIMETRY, KIT, METHOD OF MAKING, AND METHOD OF USING THEREOF” (Curium US LLC, priority 2023, published 2025).
Several values for one entry are separate records, joined by “and”; a condition that tells them apart may be missing. Equal entries are not always repeated.

Assay: Plasma PK modelling (gamma counting, bi-exponential fit), cycles 1 and 3
Assay type: in vivo, human
Procedure: PK plasma samples were collected at pre-Infusion, 1 h, 4 h, 24 h, 48 h, and 168 h, and counted for radioactivity. Blood samples were first centrifuged to extract plasma, and then the radioactivity in plasma was counted in a gamma counter.
Whole blood samples were collected as detailed in the protocol Schedule of Events i.e. pre-injection, and then at 1 h, 4 h, 24 h, 48 h, and 168 h post-injection. The samples were first centrifuged to separate plasma, and the radioactivity in the plasma was then measured using a gamma counter. Plasma concentrations were subsequently fitted with a bi-exponential function to derive outcome parameters such as the half-life and clearance rate of the radiopharmaceutical in the plasma.
Gamma-counted plasma samples were quality controlled using the same ^177Lu reference standard by measuring 0.5 ml of the 100 mL in the saline bag. For each patient, triplicates were made and measured right before all plasma samples were counted. A long-lived isotope was also counted to ensure that the protocol was properly followed by each site. Similarly to the imaging standard, when the gamma counter efficiency factor differed by more than 10% compared to that at site set-up, an investigation was launched to determine the cause of this variation, and if it reflected a difference in data acquisition.
Plasma data was fitted with a bi-exponential curve.
Blood samples were obtained for 15 out of 16 patients at cycle 3. Patients 12-004 had blood taken only at the 24 h timepoint and, therefore, was not included in the plasma PK analysis. Consistent with Cycle 1, the time-course of plasma concentrations was similar among the patients. The ranges of PK parameters obtained at cycle 3 were similar to those from Cycle 1 data (Table 6). Cycle 3 PK plasma modeling results (n=15)

[1] = Cycle 1, patient 42-030 excluded

O=C([O-])CC[C@H](NC(=O)N[C@@H](CCCCNC(=O)CCCCCCC(=O)NCCCC[C@@H](NC(=O)[C@@H](Cc1ccccc1)NC(=O)[C@@H](Cc1ccc(O)c(I)c1)NC(=O)CC[C@H](C(=O)[O-])N1CCN(CC(=O)[O-])CCN(CC(=O)[O-])CCN(CC(=O)[O-])CC1)C(=O)[O-])C(=O)[O-])C(=O)[O-].[177Lu+3].[H+].[H+].[H+].[H+].[H+] [^177Lu-PSMA I&T, (3S,7S,26R,29R,32R,37R)-29-benzyl-32-(4-hydroxy-3-iodobenzyl)-5,13,20,28,31,34-hexaoxo-37-(4,7,10-tris(carboxymethyl)-1,4,7,10-tetraazacyclododecan-1-yl)-4,6,12,21,27,30,33-heptaazaheptatriacontane-1,3,7,26,37-pentacarboxylic acid; lutetium-177 (III)]
Peak Concentration Value (Cycle 1, individual patients): 0.05 fIA/L (4×) and 0.04 fIA/L and 0.03 fIA/L | Time of Peak Concentration (Cycle 1, individual patients, time of first post-administration sample): 56.00 min and 47.00 min and 53.00 min and 60.00 min (6×) and 51.00 min (2×) and 58.00 min and 61.00 min (2×) and 50.00 min and 63.00 min and 57.00 min and 55.00 min and 52.00 min (2×) and 68.00 min and 71.00 min and 65.00 min and 33.00 min and 40.00 min and 69.00 min | AUC Total, Mean [1]: 22.77 fIA/L × min | AUC Total, max [1]: 37.86 fIA/L × min | AUC Total, median [1]: 20.84 fIA/L × min | AUC Total, min [1]: 3.07 fIA/L × min | Peak Concentration Value, Mean [1]: 0.04 fIA/L | Peak Concentration Value, max [1]: 0.07 fIA/L | Peak Concentration Value, median [1]: 0.04 fIA/L | Peak Concentration Value, min [1]: 0.01 fIA/L | Time of Peak Concentration [1]: 33.00 min | Time of Peak Concentration, median [1]: 59.00 min | Vd, Mean [1]: 234.64 L | Vd, max [1]: 1365.03 L | Vd, median [1]: 157.12 L | Vd, min [1]: 54.60 L | Time of Peak Concentration (cycle 3, max (n=15)): 68.00 min | Time of Peak Concentration (cycle 3, median (n=15)): 60.00 min | Time of Peak Concentration (cycle 3, min (n=15)): 55.00 min
